Source: ChEMBL document CHEMBL1145390, “Synthesis and preliminary biological characterization of new semisynthetic derivatives of ramoplanin” (J Med Chem, 2007)
Converted amounts (≈) assume the structure as drawn.

Tests used:
[1] = tested on: Enterococcus faecium; experiment: Antibacterial activity against vancomycin A-resistant Enterococcus faecium clinical isolate after 24 hrs by broth microdilution method; type: functional
[2] = tested on: Staphylococcus aureus; experiment: Antibacterial activity against vancomycin-intermediate resistant Staphylococcus aureus clinical isolate after 24 hrs by broth microdilution method; type: functional
[3] = Toxicity assessed as hemolysis in erythrocytes at 90 mg/L; type: cell-based, Erythrocyte; settings: human; for hemolysis at 90 mg/L: erythrocytes, read-out: Activity; for Activity: erythrocyte
[4] = tested on: Enterococcus faecalis; experiment: Antibacterial activity against vancomycin A-resistant Enterococcus faecalis after 24 hrs by broth microdilution method; type: functional
[5] = tested on: Escherichia coli; experiment: Antibacterial activity against Escherichia coli SKF-12140 after 24 hrs by broth microdilution method; type: functional
[6] = tested on: Candida albicans; experiment: Antifungal activity against Candida albicans SKF-2270 after 24 hrs by broth microdilution method; type: functional
[7] = tested on: Enterococcus faecium; experiment: Antibacterial activity against Enterococcus faecium after 24 hrs by broth microdilution method; type: functional
[8] = tested on: Staphylococcus aureus; experiment: Antibacterial activity against methicillin-resistant and vancomycin-intermediate resistant Staphylococcus aureus clinical isolate after 24 hrs by broth microdilution method; type: functional
[9] = Toxicity assessed as hemolysis in erythrocytes at 180 mg/L; type: cell-based, Erythrocyte; settings: human; for hemolysis at 180 mg/L: erythrocytes, read-out: Activity; for Activity: erythrocyte
[10] = tested on: Staphylococcus aureus; experiment: Antibacterial activity against Staphylococcus aureus Smith after 24 hrs by broth microdilution method; type: functional
[11] = tested on: Streptococcus pyogenes; experiment: Antibacterial activity against Streptococcus pyogenes C203 after 24 hrs by broth microdilution method; type: functional; settings: C203, 24 h
[12] = tested on: Staphylococcus aureus; experiment: Antibacterial activity against methicillin-resistant Staphylococcus aureus clinical isolate after 24 hrs by broth microdilution method; type: functional
[13] = tested on: Enterococcus faecalis; experiment: Antibacterial activity against Enterococcus faecalis after 24 hrs by broth microdilution method; type: functional

Compound	MIC ([1]; read-out: MIC)	MIC [2]	hemolysis at 90 mg/L [3]	MIC ([4]; read-out: MIC)	MIC ([5]; read-out: MIC)	MIC ([6]; read-out: MIC)	MIC ([7]; read-out: MIC)	MIC ([8]; read-out: MIC)	hemolysis at 180 mg/L [9]	MIC ([10]; read-out: MIC)	MIC ([11]; read-out: MIC)	MIC ([12]; read-out: MIC)	MIC ([13]; read-out: MIC)	also measured
CC(C)C[C@@H]1NC(=O)CNC(=O)[C@H](c2ccc(O)cc2)NC(=O)[C@@H]([C@@H](C)O)NC(=O)[C@H](c2ccc(O[C@H]3O[C@H](CO)[C@@H](O)[C@H](O)[C@@H]3O[C@H]3O[C@H](CO)[C@@H](O)[C@H](O)[C@@H]3O)cc2)NC(=O)[C@@H](CCCN)NC(=O)[C@H](Cc2ccccc2)NC(=O)[C@H]([C@@H](C)O)NC(=O)[C@@H](c2ccc(O)cc2)NC(=O)[C@H](c2ccc(O)cc2)NC(=O)[C@@H](C(C)C)NC(=O)[C@@H](CCCN)NC(=O)[C@@H](c2ccc(O)cc2)NC(=O)[C@@H](CNC(=O)[C@H](CC(N)=O)NC(=O)c2ccc(Cl)cc2)[C@@H](C(N)=O)OC(=O)[C@H](c2ccc(O)c(Cl)c2)NC(=O)[C@@H](C)NC1=O	0.5 µg/mL (≈ 0.195 µM)	2 µg/mL (≈ 0.779 µM)	5%	0.5 µg/mL (≈ 0.195 µM)	> 32 µg/mL	> 32 µg/mL	0.5 µg/mL (≈ 0.195 µM)	4 µg/mL (≈ 1.56 µM)	13%	0.5 µg/mL (≈ 0.195 µM)	< 0.03 µg/mL	1 µg/mL (≈ 0.389 µM)	0.5 µg/mL (≈ 0.195 µM)	
CC(C)C[C@@H]1NC(=O)CNC(=O)[C@H](c2ccc(O)cc2)NC(=O)[C@@H]([C@@H](C)O)NC(=O)[C@H](c2ccc(O[C@H]3O[C@H](CO)[C@@H](O)[C@H](O)[C@@H]3O[C@H]3O[C@H](CO)[C@@H](O)[C@H](O)[C@@H]3O)cc2)NC(=O)[C@@H](CCCN)NC(=O)[C@H](Cc2ccccc2)NC(=O)[C@H]([C@@H](C)O)NC(=O)[C@@H](c2ccc(O)cc2)NC(=O)[C@H](c2ccc(O)cc2)NC(=O)[C@@H](C(C)C)NC(=O)[C@@H](CCCN)NC(=O)[C@@H](c2ccc(O)cc2)NC(=O)[C@@H](CNC(=O)[C@H](CC(N)=O)NC(=O)CCCc2ccccc2)[C@@H](C(N)=O)OC(=O)[C@H](c2ccc(O)c(Cl)c2)NC(=O)[C@@H](C)NC1=O	2 µg/mL (≈ 0.776 µM)	8 µg/mL (≈ 3.11 µM)	0%	1 µg/mL (≈ 0.388 µM)	> 32 µg/mL	> 32 µg/mL	2 µg/mL (≈ 0.776 µM)	8 µg/mL (≈ 3.11 µM)	0%	1 µg/mL (≈ 0.388 µM)	≤ 0.03 µg/mL	2 µg/mL (≈ 0.776 µM)	1 µg/mL (≈ 0.388 µM)	
CCCCCCCCC(=O)N[C@@H](CC(N)=O)C(=O)NC[C@@H]1C(=O)N[C@H](c2ccc(O)cc2)C(=O)N[C@H](CCCN)C(=O)N[C@H](C(C)C)C(=O)N[C@@H](c2ccc(O)cc2)C(=O)N[C@H](c2ccc(O)cc2)C(=O)N[C@@H]([C@@H](C)O)C(=O)N[C@@H](Cc2ccccc2)C(=O)N[C@H](CCCN)C(=O)N[C@@H](c2ccc(O[C@H]3O[C@H](CO)[C@@H](O)[C@H](O)[C@@H]3O[C@H]3O[C@H](CO)[C@@H](O)[C@H](O)[C@@H]3O)cc2)C(=O)N[C@H]([C@@H](C)O)C(=O)N[C@@H](c2ccc(O)cc2)C(=O)NCC(=O)N[C@@H](CC(C)C)C(=O)N[C@H](C)C(=O)N[C@@H](c2ccc(O)c(Cl)c2)C(=O)O[C@@H]1C(N)=O	< 0.03 µg/mL	4 µg/mL (≈ 1.56 µM)	0%	0.06 µg/mL (≈ 0.0233 µM)	> 32 µg/mL	> 32 µg/mL	0.125 µg/mL (≈ 0.0486 µM)	8 µg/mL (≈ 3.11 µM)	5%	0.25 µg/mL (≈ 0.0973 µM)	0.125 µg/mL (≈ 0.0486 µM)	1 µg/mL (≈ 0.389 µM)	0.06 µg/mL (≈ 0.0233 µM)	
Cc1ccc(CC(=O)N[C@@H](CC(N)=O)C(=O)NC[C@@H]2C(=O)N[C@H](c3ccc(O)cc3)C(=O)N[C@H](CCCN)C(=O)N[C@H](C(C)C)C(=O)N[C@@H](c3ccc(O)cc3)C(=O)N[C@H](c3ccc(O)cc3)C(=O)N[C@@H]([C@@H](C)O)C(=O)N[C@@H](Cc3ccccc3)C(=O)N[C@H](CCCN)C(=O)N[C@@H](c3ccc(O[C@H]4O[C@H](CO)[C@@H](O)[C@H](O)[C@@H]4O[C@H]4O[C@H](CO)[C@@H](O)[C@H](O)[C@@H]4O)cc3)C(=O)N[C@H]([C@@H](C)O)C(=O)N[C@@H](c3ccc(O)cc3)C(=O)NCC(=O)N[C@@H](CC(C)C)C(=O)N[C@H](C)C(=O)N[C@@H](c3ccc(O)c(Cl)c3)C(=O)O[C@@H]2C(N)=O)cc1	0.002 µg/mL (≈ 0.000781 µM)	0.008 µg/mL (≈ 0.00312 µM)		0.002 µg/mL (≈ 0.000781 µM)			0.004 µg/mL (≈ 0.00156 µM)			0.001 µg/mL (≈ 0.00039 µM)		0.002 µg/mL (≈ 0.000781 µM)	0.002 µg/mL (≈ 0.000781 µM)	Activity [3]: 0%; MIC [5]: > 32 µg/mL; MIC [6]: > 32 µg/mL; MIC [8]: 8 µg/mL (≈ 3.12 µM); Activity [9]: 0%; MIC [11]: 0.06 µg/mL (≈ 0.0234 µM)
CC(C)C[C@@H]1NC(=O)CNC(=O)[C@H](c2ccc(O)cc2)NC(=O)[C@@H]([C@@H](C)O)NC(=O)[C@H](c2ccc(O[C@H]3O[C@H](CO)[C@@H](O)[C@H](O)[C@@H]3O[C@H]3O[C@H](CO)[C@@H](O)[C@H](O)[C@@H]3O)cc2)NC(=O)[C@@H](CCCN)NC(=O)[C@H](Cc2ccccc2)NC(=O)[C@H]([C@@H](C)O)NC(=O)[C@@H](c2ccc(O)cc2)NC(=O)[C@H](c2ccc(O)cc2)NC(=O)[C@@H](C(C)C)NC(=O)[C@@H](CCCN)NC(=O)[C@@H](c2ccc(O)cc2)NC(=O)[C@@H](CNC(=O)[C@H](CC(N)=O)NC(=O)Cc2ccc(Cl)cc2)[C@@H](C(N)=O)OC(=O)[C@H](c2ccc(O)c(Cl)c2)NC(=O)[C@@H](C)NC1=O	1 µg/mL (≈ 0.387 µM)	2 µg/mL (≈ 0.774 µM)	0%	0.5 µg/mL (≈ 0.194 µM)	> 32 µg/mL	> 32 µg/mL	1 µg/mL (≈ 0.387 µM)	4 µg/mL (≈ 1.55 µM)	0%	0.5 µg/mL (≈ 0.194 µM)	≤ 0.03 µg/mL	0.5 µg/mL (≈ 0.194 µM)	0.5 µg/mL (≈ 0.194 µM)	
CC(C)C[C@@H]1NC(=O)CNC(=O)[C@H](c2ccc(O)cc2)NC(=O)[C@@H]([C@@H](C)O)NC(=O)[C@H](c2ccc(O[C@H]3O[C@H](CO)[C@@H](O)[C@H](O)[C@@H]3O[C@H]3O[C@H](CO)[C@@H](O)[C@H](O)[C@@H]3O)cc2)NC(=O)[C@@H](CCCN)NC(=O)[C@H](Cc2ccccc2)NC(=O)[C@H]([C@@H](C)O)NC(=O)[C@@H](c2ccc(O)cc2)NC(=O)[C@H](c2ccc(O)cc2)NC(=O)[C@@H](C(C)C)NC(=O)[C@@H](CCCN)NC(=O)[C@@H](c2ccc(O)cc2)NC(=O)[C@@H](CNC(=O)[C@H](CC(N)=O)NC(=O)c2ccc(C#N)cc2)[C@@H](C(N)=O)OC(=O)[C@H](c2ccc(O)c(Cl)c2)NC(=O)[C@@H](C)NC1=O	4 µg/mL (≈ 1.56 µM)	32 µg/mL (≈ 12.5 µM)	2%	8 µg/mL (≈ 3.13 µM)	> 32 µg/mL	> 32 µg/mL	8 µg/mL (≈ 3.13 µM)	32 µg/mL (≈ 12.5 µM)	3%	8 µg/mL (≈ 3.13 µM)	0.06 µg/mL (≈ 0.0234 µM)	4 µg/mL (≈ 1.56 µM)	4 µg/mL (≈ 1.56 µM)	
CC(C)C[C@@H]1NC(=O)CNC(=O)[C@H](c2ccc(O)cc2)NC(=O)[C@@H]([C@@H](C)O)NC(=O)[C@H](c2ccc(O[C@H]3O[C@H](CO)[C@@H](O)[C@H](O)[C@@H]3O[C@H]3O[C@H](CO)[C@@H](O)[C@H](O)[C@@H]3O)cc2)NC(=O)[C@@H](CCCN)NC(=O)[C@H](Cc2ccccc2)NC(=O)[C@H]([C@@H](C)O)NC(=O)[C@@H](c2ccc(O)cc2)NC(=O)[C@H](c2ccc(O)cc2)NC(=O)[C@@H](C(C)C)NC(=O)[C@@H](CCCN)NC(=O)[C@@H](c2ccc(O)cc2)NC(=O)[C@@H](CNC(=O)[C@H](CC(N)=O)NC(=O)Cc2cccc3ccccc23)[C@@H](C(N)=O)OC(=O)[C@H](c2ccc(O)c(Cl)c2)NC(=O)[C@@H](C)NC1=O		0.0005 µg/mL (≈ 0.000192 µM)												MIC [1]: 0.25 µg/mL (≈ 0.0962 µM); Activity [3]: 15%; MIC [4]: 0.125 µg/mL (≈ 0.0481 µM); MIC [5]: > 32 µg/mL; MIC [6]: > 32 µg/mL; MIC [7]: 0.25 µg/mL (≈ 0.0962 µM); MIC [8]: 1 µg/mL (≈ 0.385 µM); Activity [9]: 28%; MIC [10]: 0.25 µg/mL (≈ 0.0962 µM); MIC [11]: ≤ 0.03 µg/mL; MIC [12]: 0.125 µg/mL (≈ 0.0481 µM); MIC [13]: 0.125 µg/mL (≈ 0.0481 µM)
CCCCC(=O)N[C@@H](CC(N)=O)C(=O)NC[C@@H]1C(=O)N[C@H](c2ccc(O)cc2)C(=O)N[C@H](CCCN)C(=O)N[C@H](C(C)C)C(=O)N[C@@H](c2ccc(O)cc2)C(=O)N[C@H](c2ccc(O)cc2)C(=O)N[C@@H]([C@@H](C)O)C(=O)N[C@@H](Cc2ccccc2)C(=O)N[C@H](CCCN)C(=O)N[C@@H](c2ccc(O[C@H]3O[C@H](CO)[C@@H](O)[C@H](O)[C@@H]3O[C@H]3O[C@H](CO)[C@@H](O)[C@H](O)[C@@H]3O)cc2)C(=O)N[C@H]([C@@H](C)O)C(=O)N[C@@H](c2ccc(O)cc2)C(=O)NCC(=O)N[C@@H](CC(C)C)C(=O)N[C@H](C)C(=O)N[C@@H](c2ccc(O)c(Cl)c2)C(=O)O[C@@H]1C(N)=O	8 µg/mL (≈ 3.18 µM)	32 µg/mL (≈ 12.7 µM)	0%	8 µg/mL (≈ 3.18 µM)	> 32 µg/mL	> 32 µg/mL	8 µg/mL (≈ 3.18 µM)	> 32 µg/mL	0%	8 µg/mL (≈ 3.18 µM)	0.125 µg/mL (≈ 0.0497 µM)	8 µg/mL (≈ 3.18 µM)	8 µg/mL (≈ 3.18 µM)	
